{"source": "paper PMC5791972", "about": "(PLoS ONE, 2018)", "key": {"[1]": {"conditions": "C57BL/6, mouse, in vivo"}, "in vitro": {"experiment": "in vitro", "conditions": "plasma"}, "hTRPV3": {"molecular_target": "T1, hTRPV3 (Homo sapiens, UniProt Q8NET8)", "T1 construct": "The cDNAs for various full-length ion channels were subcloned into pcDNA5/TO; expressed in transfected cells; host or cells: T-REx-293 (general cell paragraph)", "T1 sequence (Q8NET8 whole entry)": "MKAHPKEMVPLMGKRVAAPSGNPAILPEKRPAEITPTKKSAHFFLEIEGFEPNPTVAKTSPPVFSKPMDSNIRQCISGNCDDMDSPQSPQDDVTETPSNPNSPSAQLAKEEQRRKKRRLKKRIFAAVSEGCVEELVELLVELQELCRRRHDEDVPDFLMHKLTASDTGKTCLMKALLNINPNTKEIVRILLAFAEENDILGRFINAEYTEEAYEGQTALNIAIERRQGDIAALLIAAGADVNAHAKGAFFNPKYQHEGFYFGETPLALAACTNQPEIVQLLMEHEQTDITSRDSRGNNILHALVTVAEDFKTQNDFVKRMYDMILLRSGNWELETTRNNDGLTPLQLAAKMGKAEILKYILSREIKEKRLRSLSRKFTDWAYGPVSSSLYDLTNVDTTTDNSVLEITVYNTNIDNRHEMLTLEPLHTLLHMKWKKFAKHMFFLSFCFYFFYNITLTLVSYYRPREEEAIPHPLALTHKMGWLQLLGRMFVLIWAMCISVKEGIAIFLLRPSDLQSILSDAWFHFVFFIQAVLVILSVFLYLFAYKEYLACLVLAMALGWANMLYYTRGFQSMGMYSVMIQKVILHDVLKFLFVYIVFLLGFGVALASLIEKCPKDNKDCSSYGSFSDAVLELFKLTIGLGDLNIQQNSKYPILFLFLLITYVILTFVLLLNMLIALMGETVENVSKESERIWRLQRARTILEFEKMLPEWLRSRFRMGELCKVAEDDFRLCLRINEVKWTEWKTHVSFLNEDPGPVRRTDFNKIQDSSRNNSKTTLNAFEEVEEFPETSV", "experiment": "Ion channel selectivity patch clamp", "type": "cell-based"}, "range of ion channels": {"tested_on": "range of ion channels", "experiment": "Ion channel selectivity panel, whole-cell manual patch clamp", "type": "cell-based", "conditions": "at 1.9 μM"}, "Kv7.1": {"molecular_target": "T2, Kv7.1 (Homo sapiens, UniProt P51787)", "T2 construct": "expressed in transfected cells", "experiment": "Ion channel selectivity patch clamp", "type": "cell-based", "conditions": "Voltage (+20 mV)"}, "CD-1 mice": {"tested_on": "CD-1 mice", "experiment": "Forced swim test"}, "MC3 (h)": {"molecular_target": "T3, MC3 (h) (Homo sapiens, UniProt P41968)", "T3 construct": "host or cells: CHO cells", "T3 sequence (P41968 whole entry)": "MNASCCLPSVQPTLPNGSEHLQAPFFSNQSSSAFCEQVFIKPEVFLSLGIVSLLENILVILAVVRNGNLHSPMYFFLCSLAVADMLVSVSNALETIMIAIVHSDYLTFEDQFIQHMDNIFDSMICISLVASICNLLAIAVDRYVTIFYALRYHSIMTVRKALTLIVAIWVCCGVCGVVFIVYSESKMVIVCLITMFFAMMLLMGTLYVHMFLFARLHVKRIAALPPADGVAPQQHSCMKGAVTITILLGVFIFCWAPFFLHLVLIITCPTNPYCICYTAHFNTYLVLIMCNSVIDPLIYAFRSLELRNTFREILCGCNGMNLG", "type": "binding"}, "ATPase (Na+/K+)": {"tested_on": "ATPase (Na+/K+)", "experiment": "enzyme assay", "type": "biochemical, porcine", "conditions": "1.0E-06 M"}, "ZAP70 kinase (h)": {"molecular_target": "T4, ZAP70 kinase (h) (Homo sapiens, UniProt P43403)", "T4 construct": "host or cells: insect cells", "T4 sequence (P43403 1-619)": "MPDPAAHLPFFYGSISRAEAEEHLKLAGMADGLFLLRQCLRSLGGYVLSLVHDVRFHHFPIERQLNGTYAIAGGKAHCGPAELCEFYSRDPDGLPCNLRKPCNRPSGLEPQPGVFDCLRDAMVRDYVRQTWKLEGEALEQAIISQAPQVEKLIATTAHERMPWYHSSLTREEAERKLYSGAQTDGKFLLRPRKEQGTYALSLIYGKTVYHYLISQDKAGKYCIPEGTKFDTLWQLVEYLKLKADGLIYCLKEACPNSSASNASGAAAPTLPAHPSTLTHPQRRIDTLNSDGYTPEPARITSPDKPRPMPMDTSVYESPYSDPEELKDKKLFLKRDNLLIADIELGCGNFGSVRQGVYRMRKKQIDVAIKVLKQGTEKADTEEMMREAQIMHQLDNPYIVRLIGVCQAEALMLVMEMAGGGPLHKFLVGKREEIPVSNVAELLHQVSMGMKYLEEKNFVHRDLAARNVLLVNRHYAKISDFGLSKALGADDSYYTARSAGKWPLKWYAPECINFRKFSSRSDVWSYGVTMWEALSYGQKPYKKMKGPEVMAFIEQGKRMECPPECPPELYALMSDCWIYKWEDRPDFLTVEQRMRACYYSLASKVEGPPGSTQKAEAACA", "experiment": "biochemical", "conditions": "1.0E-06 M"}, "[2]": {"tested_on": "Ca2+ channel (L, verapamil site) (phenylalkylamine)", "type": "binding, rat", "conditions": "1.0E-06 M"}, "V1a (h)": {"molecular_target": "T5, V1a (h) (Homo sapiens, UniProt P37288)", "T5 construct": "host or cells: CHO cells", "T5 sequence (P37288 whole entry)": "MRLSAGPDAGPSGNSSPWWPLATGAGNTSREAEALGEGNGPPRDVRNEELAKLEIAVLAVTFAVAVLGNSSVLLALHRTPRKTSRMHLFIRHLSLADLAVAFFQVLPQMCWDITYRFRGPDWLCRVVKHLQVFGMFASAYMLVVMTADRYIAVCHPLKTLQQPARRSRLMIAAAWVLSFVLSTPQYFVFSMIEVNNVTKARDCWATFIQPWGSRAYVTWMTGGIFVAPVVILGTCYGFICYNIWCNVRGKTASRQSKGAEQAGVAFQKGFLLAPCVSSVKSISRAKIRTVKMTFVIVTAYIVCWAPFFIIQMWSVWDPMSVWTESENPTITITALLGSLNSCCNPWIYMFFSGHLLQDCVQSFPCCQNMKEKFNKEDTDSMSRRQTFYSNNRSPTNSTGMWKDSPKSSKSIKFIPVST", "type": "binding", "conditions": "1.0E-06 M"}, "BLT1 (LTB4) (h)": {"molecular_target": "T6, BLT1 (LTB4) (h) (Homo sapiens, UniProt Q15722)", "T6 construct": "host or cells: CHO cells", "T6 sequence (Q15722 whole entry)": "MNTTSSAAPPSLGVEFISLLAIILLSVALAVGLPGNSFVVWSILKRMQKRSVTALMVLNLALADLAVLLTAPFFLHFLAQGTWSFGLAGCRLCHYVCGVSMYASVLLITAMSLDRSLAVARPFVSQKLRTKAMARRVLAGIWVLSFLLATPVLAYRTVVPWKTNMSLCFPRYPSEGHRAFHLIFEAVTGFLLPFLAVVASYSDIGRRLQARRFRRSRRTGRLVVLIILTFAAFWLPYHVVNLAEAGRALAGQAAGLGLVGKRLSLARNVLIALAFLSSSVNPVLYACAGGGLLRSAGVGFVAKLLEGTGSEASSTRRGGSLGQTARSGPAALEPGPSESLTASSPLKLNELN", "type": "binding", "conditions": "1.0E-06 M"}, "5-HT2B (h)": {"molecular_target": "T7, 5-HT2B (h) (Homo sapiens, UniProt P41595)", "T7 construct": "host or cells: CHO cells", "T7 sequence (P41595 whole entry)": "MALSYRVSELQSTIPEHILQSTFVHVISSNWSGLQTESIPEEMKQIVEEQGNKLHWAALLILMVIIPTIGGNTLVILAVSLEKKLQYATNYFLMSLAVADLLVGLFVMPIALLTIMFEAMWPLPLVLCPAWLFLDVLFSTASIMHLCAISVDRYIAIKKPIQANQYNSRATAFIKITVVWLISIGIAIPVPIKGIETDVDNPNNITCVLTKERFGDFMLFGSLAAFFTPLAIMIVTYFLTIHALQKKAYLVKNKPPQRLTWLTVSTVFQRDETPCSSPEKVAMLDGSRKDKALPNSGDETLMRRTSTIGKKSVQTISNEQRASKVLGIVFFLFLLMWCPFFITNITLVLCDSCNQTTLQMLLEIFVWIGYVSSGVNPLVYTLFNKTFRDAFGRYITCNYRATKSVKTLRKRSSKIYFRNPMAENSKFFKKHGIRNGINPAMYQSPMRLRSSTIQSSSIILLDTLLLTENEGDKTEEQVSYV", "type": "binding", "conditions": "1.0E-06 M"}, "[3]": {"molecular_target": "T8, FLT-1 kinase (h) (VEGFR1) (Homo sapiens, UniProt P17948)", "T8 construct": "host or cells: Sf9 cells", "T8 sequence (P17948 27-1338)": "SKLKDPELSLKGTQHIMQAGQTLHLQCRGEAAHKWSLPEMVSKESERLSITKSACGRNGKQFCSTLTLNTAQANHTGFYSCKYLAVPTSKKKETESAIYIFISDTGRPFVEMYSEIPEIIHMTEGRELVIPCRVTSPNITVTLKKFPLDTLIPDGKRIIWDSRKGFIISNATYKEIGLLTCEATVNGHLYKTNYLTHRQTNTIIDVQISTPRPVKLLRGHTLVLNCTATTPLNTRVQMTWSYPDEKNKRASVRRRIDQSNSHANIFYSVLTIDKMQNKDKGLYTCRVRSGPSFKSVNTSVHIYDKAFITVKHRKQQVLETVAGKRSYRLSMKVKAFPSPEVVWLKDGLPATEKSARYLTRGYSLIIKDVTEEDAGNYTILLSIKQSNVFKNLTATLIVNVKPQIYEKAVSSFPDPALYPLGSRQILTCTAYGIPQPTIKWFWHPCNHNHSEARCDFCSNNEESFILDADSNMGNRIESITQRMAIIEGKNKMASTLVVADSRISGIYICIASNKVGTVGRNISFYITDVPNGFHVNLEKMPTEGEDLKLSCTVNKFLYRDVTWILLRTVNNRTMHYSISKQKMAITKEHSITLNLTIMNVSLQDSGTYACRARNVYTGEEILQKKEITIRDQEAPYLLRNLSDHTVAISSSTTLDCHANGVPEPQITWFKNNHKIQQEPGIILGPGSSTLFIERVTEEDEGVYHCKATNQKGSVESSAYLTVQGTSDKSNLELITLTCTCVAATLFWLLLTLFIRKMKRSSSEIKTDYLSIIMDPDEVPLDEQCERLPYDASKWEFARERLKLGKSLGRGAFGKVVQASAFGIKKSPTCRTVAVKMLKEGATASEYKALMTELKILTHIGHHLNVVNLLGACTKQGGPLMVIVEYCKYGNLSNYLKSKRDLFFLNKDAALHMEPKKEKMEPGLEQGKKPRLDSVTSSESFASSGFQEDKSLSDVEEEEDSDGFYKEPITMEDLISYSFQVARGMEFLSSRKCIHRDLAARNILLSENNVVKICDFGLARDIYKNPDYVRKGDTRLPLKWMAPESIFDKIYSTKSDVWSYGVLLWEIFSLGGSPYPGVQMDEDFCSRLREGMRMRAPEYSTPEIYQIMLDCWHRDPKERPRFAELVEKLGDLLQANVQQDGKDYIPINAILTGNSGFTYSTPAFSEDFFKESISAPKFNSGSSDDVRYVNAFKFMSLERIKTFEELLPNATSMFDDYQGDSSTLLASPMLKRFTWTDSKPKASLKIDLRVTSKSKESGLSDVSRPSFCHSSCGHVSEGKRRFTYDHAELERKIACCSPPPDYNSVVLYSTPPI", "experiment": "enzyme assay", "type": "biochemical", "conditions": "1.0E-06 M"}, "5-HT2A (h)": {"molecular_target": "T9, 5-HT2A (h) (Homo sapiens, UniProt P28223)", "T9 construct": "host or cells: HEK-293 cells", "T9 sequence (P28223 whole entry)": "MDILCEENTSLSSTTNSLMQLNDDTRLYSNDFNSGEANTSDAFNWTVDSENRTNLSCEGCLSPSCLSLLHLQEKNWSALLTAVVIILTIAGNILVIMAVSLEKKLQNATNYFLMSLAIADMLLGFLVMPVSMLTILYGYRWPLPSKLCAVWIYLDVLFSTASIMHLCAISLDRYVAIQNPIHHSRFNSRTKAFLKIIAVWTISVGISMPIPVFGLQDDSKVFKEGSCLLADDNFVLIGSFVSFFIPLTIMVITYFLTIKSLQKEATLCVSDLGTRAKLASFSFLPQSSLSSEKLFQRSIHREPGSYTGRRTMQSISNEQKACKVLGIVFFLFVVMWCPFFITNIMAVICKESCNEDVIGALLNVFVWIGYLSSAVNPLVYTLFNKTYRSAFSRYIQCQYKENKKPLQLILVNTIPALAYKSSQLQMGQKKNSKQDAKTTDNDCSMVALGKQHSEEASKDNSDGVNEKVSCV", "type": "binding"}, "human TRPC4 (hTRPC4)": {"molecular_target": "T10, human TRPC4 (hTRPC4) (Homo sapiens, UniProt Q9UBN4)", "T10 construct": "The cDNAs for various full-length ion channels were subcloned into pcDNA5/TO; expressed in transfected cells; M1R co-expressed in the calcium assay, M2R in patch clamp", "experiment": "Fluorometric calcium influx assay", "type": "cell-based", "conditions": "1 pM to 1 μM, n = 8"}, "D2S (h)": {"molecular_target": "D2S (h) (Homo sapiens, UniProt P14416)", "sequence (P14416 1-414 isoform P14416-2)": "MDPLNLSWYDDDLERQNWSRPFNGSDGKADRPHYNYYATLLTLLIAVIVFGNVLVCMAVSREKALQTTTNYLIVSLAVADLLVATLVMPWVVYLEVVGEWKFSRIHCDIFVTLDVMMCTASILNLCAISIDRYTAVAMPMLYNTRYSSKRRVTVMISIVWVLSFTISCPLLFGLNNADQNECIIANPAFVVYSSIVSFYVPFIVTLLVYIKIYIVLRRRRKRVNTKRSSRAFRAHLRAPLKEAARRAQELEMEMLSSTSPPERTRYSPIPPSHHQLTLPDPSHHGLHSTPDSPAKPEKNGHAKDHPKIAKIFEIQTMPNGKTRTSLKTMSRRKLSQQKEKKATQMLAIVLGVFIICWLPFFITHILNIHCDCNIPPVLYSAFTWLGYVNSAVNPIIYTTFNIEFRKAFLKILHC", "experiment": "biochemical"}, "CaMK2α (h)": {"molecular_target": "CaMK2α (h) (Homo sapiens, UniProt Q9UQM7)", "experiment": "enzyme assay", "type": "biochemical", "conditions": "1.0E-06 M"}, "rolipram": {"tested_on": "rolipram", "type": "binding, mouse", "conditions": "1.0E-06 M"}, "[4]": {"molecular_target": "carbonic anhydrase II (h) (Homo sapiens, UniProt P00918)", "experiment": "biochemical", "conditions": "1.0E-06 M"}}, "note": "“Also recorded” adds a separate entry of the source. Where two headings read alike, the source gives them in different places."}
{"compound": "Cn1c(=O)n(CCCO)c(=O)c2c1nc(Oc1cccc(Cl)c1)n2Cc1ccc(Cl)cc1", "note": "[HC-070]", "values": [{"measurement": "concentration in brain", "setting": "[1]; iv, 1 mg/kg, 2 h", "value": "299 ± 11", "unit": "nmol/kg"}, {"measurement": "concentration in brain tissue", "setting": "[1]; po, 10 mg/kg, 2 h", "value": "525 ± 72", "unit": "nmol/kg"}, {"measurement": "unbound brain concentration", "setting": "[1]; po, 10 mg/kg, 2 h", "value": 1.5, "unit": "nmol/kg"}, {"measurement": "MRTdisp", "setting": "[1]; male, iv, 1 mg/kg", "value": 1.9, "unit": "h"}, {"measurement": "MRTtot", "setting": "[1]; male, po, 10 mg/kg", "value": 4.5, "unit": "h"}, {"measurement": "fraction unbound", "setting": "in vitro", "value": 0.004}, {"measurement": "IC50", "setting": "hTRPV3; 30 µM 2-APB, read-out: IC50", "value": "> 1900", "unit": "nM"}, {"measurement": "inhibition in most cases", "setting": "range of ion channels", "value": "≤ 50", "unit": "%"}, {"measurement": "IC50", "setting": "Kv7.1", "value": "> 1900", "unit": "nM"}, {"measurement": "immobility time", "setting": "CD-1 mice; 0.3, 1 or 3 mg/kg PO, 60 min prior, CD-1 mice", "value": "reduced the immobility time; also recorded: significantly decreased"}, {"measurement": "IC50", "setting": "CD-1 mice; Mus musculus, read-out: IC50 of immobility versus average plasma exposure (PK-PD)", "value": 58, "unit": "nM"}, {"measurement": "calculated free brain concentration corresponding to PK-PD IC50", "setting": "CD-1 mice; male, CD-1 and C57BL/6, mouse, in vivo", "value": 0.16, "unit": "nM"}]}
{"compound": "Cn1c(=O)n(CCCO)c(=O)c2c1nc(Oc1cccc(OC(F)(F)F)c1)n2Cc1ccc(Cl)cc1", "note": "[HC-608]", "values": [{"measurement": "inhibition at 1 µM", "setting": "MC3 (h); 1.0E-06 M, read-out: % Inhibition 1st", "value": 14.4, "unit": "%"}, {"measurement": "inhibition at 1 µM", "setting": "MC3 (h); 1.0E-06 M, read-out: % Inhibition 2nd", "value": 15.3, "unit": "%"}, {"measurement": "inhibition at 1 µM", "setting": "MC3 (h); read-out: % Inhibition Mean", "value": 14.8, "unit": "%"}, {"measurement": "% Inhibition 1st", "setting": "ATPase (Na+/K+)", "value": 3.0, "unit": "%"}, {"measurement": "% Inhibition 2nd", "setting": "ATPase (Na+/K+)", "value": -1.5, "unit": "%"}, {"measurement": "% Inhibition Mean", "setting": "ATPase (Na+/K+)", "value": 0.8, "unit": "%"}, {"measurement": "inhibition at 1 µM", "setting": "ZAP70 kinase (h); read-out: % Inhibition 1st", "value": -1.6, "unit": "%"}, {"measurement": "inhibition at 1 µM", "setting": "ZAP70 kinase (h); read-out: % Inhibition 2nd", "value": -3, "unit": "%"}, {"measurement": "inhibition at 1 µM", "setting": "ZAP70 kinase (h); read-out: % Inhibition Mean", "value": -2.3, "unit": "%"}, {"measurement": "IC50", "setting": "hTRPV3", "value": "> 1640", "unit": "nM"}, {"measurement": "% Inhibition 1st", "setting": "[2]", "value": 2.3, "unit": "%"}, {"measurement": "% Inhibition 2nd", "setting": "[2]", "value": 14.5, "unit": "%"}, {"measurement": "% Inhibition Mean", "setting": "[2]", "value": 8.4, "unit": "%"}, {"measurement": "inhibition at 1 µM", "setting": "V1a (h); read-out: % Inhibition 1st", "value": -9.9, "unit": "%"}, {"measurement": "inhibition at 1 µM", "setting": "V1a (h); read-out: % Inhibition 2nd", "value": 12.5, "unit": "%"}, {"measurement": "inhibition at 1 µM", "setting": "V1a (h); read-out: % Inhibition Mean", "value": 1.3, "unit": "%"}, {"measurement": "inhibition at 1 µM", "setting": "BLT1 (LTB4) (h); read-out: % Inhibition 1st", "value": -2.9, "unit": "%"}, {"measurement": "inhibition at 1 µM", "setting": "BLT1 (LTB4) (h); read-out: % Inhibition 2nd", "value": 13.4, "unit": "%"}, {"measurement": "inhibition at 1 µM", "setting": "BLT1 (LTB4) (h); read-out: % Inhibition Mean", "value": 5.3, "unit": "%"}, {"measurement": "inhibition at 1 µM", "setting": "5-HT2B (h); read-out: % Inhibition 1st", "value": 15.9, "unit": "%"}, {"measurement": "inhibition at 1 µM", "setting": "5-HT2B (h); read-out: % Inhibition 2nd", "value": 15.8, "unit": "%"}, {"measurement": "inhibition at 1 µM", "setting": "5-HT2B (h); read-out: % Inhibition Mean", "value": 15.9, "unit": "%"}, {"measurement": "inhibition at 1 µM", "setting": "[3]; read-out: % Inhibition 1st", "value": 9.3, "unit": "%"}, {"measurement": "inhibition at 1 µM", "setting": "[3]; read-out: % Inhibition 2nd", "value": 7.3, "unit": "%"}, {"measurement": "inhibition at 1 µM", "setting": "[3]; read-out: % Inhibition Mean", "value": 8.3, "unit": "%"}, {"measurement": "inhibition at 1 µM", "setting": "5-HT2A (h); read-out: % Inhibition 1st", "value": -4.3, "unit": "%"}, {"measurement": "inhibition at 1 µM", "setting": "5-HT2A (h); read-out: % Inhibition 2nd", "value": 6.9, "unit": "%"}, {"measurement": "inhibition at 1 µM", "setting": "5-HT2A (h); read-out: % Inhibition Mean", "value": 1.3, "unit": "%"}, {"measurement": "IC50", "setting": "human TRPC4 (hTRPC4)", "value": "32.5 ± 1.8", "unit": "nM"}, {"measurement": "inhibition at 1 µM", "setting": "D2S (h); read-out: % Inhibition 1st", "value": 19.2, "unit": "%"}, {"measurement": "inhibition at 1 µM", "setting": "D2S (h); read-out: % Inhibition 2nd", "value": 9.4, "unit": "%"}, {"measurement": "inhibition at 1 µM", "setting": "D2S (h); read-out: % Inhibition Mean", "value": 14.3, "unit": "%"}, {"measurement": "inhibition at 1 µM", "setting": "CaMK2α (h); read-out: % Inhibition 1st", "value": -4, "unit": "%"}, {"measurement": "inhibition at 1 µM", "setting": "CaMK2α (h); read-out: % Inhibition 2nd", "value": 2.8, "unit": "%"}, {"measurement": "inhibition at 1 µM", "setting": "CaMK2α (h); read-out: % Inhibition Mean", "value": -0.6, "unit": "%"}, {"measurement": "% Inhibition 1st", "setting": "rolipram", "value": -4.6, "unit": "%"}, {"measurement": "% Inhibition 2nd", "setting": "rolipram", "value": 0.5, "unit": "%"}, {"measurement": "% Inhibition Mean", "setting": "rolipram", "value": -2.1, "unit": "%"}, {"measurement": "inhibition at 1 µM", "setting": "[4]; read-out: % Inhibition 1st", "value": -0.9, "unit": "%"}, {"measurement": "inhibition at 1 µM", "setting": "[4]; read-out: % Inhibition 2nd", "value": 0.2, "unit": "%"}, {"measurement": "inhibition at 1 µM", "setting": "[4]; read-out: % Inhibition Mean", "value": -0.4, "unit": "%"}]}
